{"source": "patent US9808448B2", "about": "“Pharmaceutical compounds and use of same in cancer and tauopathies” (THE REGENTS OF THE UNIVERSITY OF MICHIGAN, priority 2013, dated 2017)", "key": {"[1]": {"test": "t1/2 in tau activity screen table", "assay_type": "in vitro ADME", "details": "liver microsomes; matrix not stated"}, "[2]": {"biological_target": "prokaryotic Hsp70 (DnaK) binding to denatured luciferase (Escherichia coli, UniProt P0A6Y8)", "sequence (P0A6Y8 whole entry)": "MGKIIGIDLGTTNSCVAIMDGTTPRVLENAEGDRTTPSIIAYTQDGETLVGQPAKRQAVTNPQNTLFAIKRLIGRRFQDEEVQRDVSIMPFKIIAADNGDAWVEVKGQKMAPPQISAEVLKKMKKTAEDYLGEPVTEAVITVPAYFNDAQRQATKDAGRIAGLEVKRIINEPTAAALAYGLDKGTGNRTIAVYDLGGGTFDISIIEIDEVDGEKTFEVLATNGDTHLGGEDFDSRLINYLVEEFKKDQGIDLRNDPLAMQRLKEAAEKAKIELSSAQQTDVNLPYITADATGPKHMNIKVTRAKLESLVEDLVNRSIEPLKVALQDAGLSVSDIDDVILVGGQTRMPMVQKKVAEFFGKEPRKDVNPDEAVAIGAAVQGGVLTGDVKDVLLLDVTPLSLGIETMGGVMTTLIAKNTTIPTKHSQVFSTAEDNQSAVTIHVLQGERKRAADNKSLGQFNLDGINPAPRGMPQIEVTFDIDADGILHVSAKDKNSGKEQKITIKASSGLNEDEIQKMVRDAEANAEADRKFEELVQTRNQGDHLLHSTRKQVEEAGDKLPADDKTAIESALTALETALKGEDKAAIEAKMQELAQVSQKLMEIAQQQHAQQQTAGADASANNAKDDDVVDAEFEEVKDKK", "test": "Luciferase binding assay", "assay_type": "biochemical", "details": "50 μM", "method": "(§1) Next, the effect of chaperone functions by binding of YM-08 to Hsp70 was investigated. […] This profile is shared with other allosteric Hsp70 inhibitors. As another test of chaperone function, the effects of the compounds on the binding of Hsp70 to a misfolded protein were measured. In previous work, MKT-077 stabilized the interaction between prokaryotic Hsp70 (DnaK) and denatured luciferase. Briefly, this assay involves immobilizing unfolded luciferase in microtiter plates and measuring binding to DnaK. […] To explore whether YM-08 might also enhance binding of Hsp70 to a more physiologically relevant substrate, binding of tau to immobilized human Hsc70 was measured.\n(§2) Binding of prokaryotic Hsp70 (DnaK) to denatured luciferase was measured as previously described, in e.g., Miyata, et al., J. Biomol. Screen, 15:1211-1219 (2010). Briefly, firefly luciferase (0.2 mg/mL) was proteolyzed with trypsin and immobilized in 96-well microtiter plates. After washing, the binding of luciferase to DnaK (500 nM) was measured using an anti-DnaK antibody and HRP secondary antibody. A similar strategy was used to monitor binding of human Hsc70 to tau, as previously described in Thompson, et al., ACS Chem. Biol., 7:1677-1686 (2012)."}, "MEF (C57BL/6)": {"system": "MEF (C57BL/6)", "test": "Cell survival, MEF", "assay_type": "cell-based", "details": "Mus musculus; tau activity screen table; read-out: MEF IC50"}, "Hsp72 (HSPA1)": {"biological_target": "T1, Hsp72 (HSPA1) (Homo sapiens, UniProt P0DMV8)", "T1 construct": "Biotinylated human Hsc70NBD or full length Hsp72 were first immobilized; made in house", "T1 sequence (P0DMV8 whole entry)": "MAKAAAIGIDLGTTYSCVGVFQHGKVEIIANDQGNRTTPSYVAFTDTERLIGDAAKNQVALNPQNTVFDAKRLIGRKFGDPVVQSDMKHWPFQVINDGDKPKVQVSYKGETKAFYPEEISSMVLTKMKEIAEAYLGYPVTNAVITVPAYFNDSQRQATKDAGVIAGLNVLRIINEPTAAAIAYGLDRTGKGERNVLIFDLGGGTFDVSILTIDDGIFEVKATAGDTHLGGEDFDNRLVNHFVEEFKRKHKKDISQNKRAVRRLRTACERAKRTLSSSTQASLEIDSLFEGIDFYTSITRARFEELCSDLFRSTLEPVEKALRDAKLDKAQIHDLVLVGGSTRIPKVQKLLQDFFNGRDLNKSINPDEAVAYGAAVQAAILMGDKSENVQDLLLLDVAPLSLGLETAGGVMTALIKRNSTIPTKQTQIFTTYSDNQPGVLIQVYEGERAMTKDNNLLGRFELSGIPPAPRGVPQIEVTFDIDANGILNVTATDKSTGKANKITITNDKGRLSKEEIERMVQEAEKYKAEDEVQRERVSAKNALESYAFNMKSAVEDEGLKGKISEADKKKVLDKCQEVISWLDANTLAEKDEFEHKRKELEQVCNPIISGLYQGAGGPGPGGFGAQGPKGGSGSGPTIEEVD", "test": "Biolayer interferometry (Octet Red), Hsp72", "assay_type": "binding", "details": "immobilized full length Hsp72", "method": "Binding of MKT-077 analogs to immobilized Hsp70 was evaluated using a competitive ELISA. In this established assay, a biotinylated version of MKT-077 is bound to immobilized human Hsc70 (HSPA8) and potential competitors are tested for their ability to block the interaction. […] As further controls, the truncated compounds YM-02, YM-03, YM-04 and YM-07 were tested.\nBiotinylated human Hsc70NBD or full length Hsp72 were first immobilized on super streptavidin biosensors (ForteBio, 18-5057) as follows: biosensors were soaked with MG buffer (100 mM Tris base, 20 mM KCl, 6 mM MgCl2, 0.01% Triton X-100, pH 7.4) for 10 min before moving them to wells either containing 200 μL […] biotinylated proteins or […] biocytin for 60 min. The free streptavidin sites were subsequently quenched with […] biocytin for 10 min. The biosensors were washed with MG buffer for 5 min prior to beginning the binding experiments. The association and disassociation steps were carried out in MG buffer with a constant 10% DMSO concentration. All steps were performed at room temperature and with 1000 rpm rotary shaking. […] The apparent affinities of YM-08 for Hsc70NBD and Hsp72 were calculated from both equilibrium measurements and global fits of the kon and koff values, yielding similar values."}, "[3]": {"test": "Initial pharmacokinetics and biodistribution in CD1 mice", "assay_type": "in vivo, mouse", "details": "i.v., YM-01 20 mg/kg saline, YM-08 10 mg/kg 10% DMSO/saline", "method": "(A) Initial pharmacokinetics and biodistribution of YM-01 and YM-08. Compounds were suspended in buffered saline (YM-01) or 10% DMSO/saline (YM-08) and injected at 20 and 10 mg/kg, respectively. YM-08 was not soluble in saline or 10% DMSO/saline at 20 mg/kg. The levels of YM-08 in the brain at 1 hr after injection could not be accurately determined because its value was outside the calibration curve. […] Results are average from data acquired from three female mice. (C) YM-08 maintains a B/P ratio of nearly 0.25 for 18 hrs.\nThe initial pharmacokinetics (PK) of YM-01 and YM-08 were tested in CD1 mice. […] After a single 6.6 mg/kg dose delivered i.v., the peak brain concentration of YM-08 was 4 μg/g (FIG. 7B) and the ratio in the brain:plasma (B/P) ratio was approximately 0.25 for 18 hrs (FIG. 7C). […] It is not yet clear how much tau levels need to be reduced to achieve therapeutic effects in disease models, but the area-under-the-curve (AUCinf) for YM-08 in the brain was 0.26 μg·hr/g and the AUCinf in plasma was 13.6 μg·hr/mL."}, "human Hsc70": {"biological_target": "T2, human Hsc70 (Homo sapiens, UniProt P11142)", "T2 construct": "made in house", "T2 sequence (P11142 2-646)": "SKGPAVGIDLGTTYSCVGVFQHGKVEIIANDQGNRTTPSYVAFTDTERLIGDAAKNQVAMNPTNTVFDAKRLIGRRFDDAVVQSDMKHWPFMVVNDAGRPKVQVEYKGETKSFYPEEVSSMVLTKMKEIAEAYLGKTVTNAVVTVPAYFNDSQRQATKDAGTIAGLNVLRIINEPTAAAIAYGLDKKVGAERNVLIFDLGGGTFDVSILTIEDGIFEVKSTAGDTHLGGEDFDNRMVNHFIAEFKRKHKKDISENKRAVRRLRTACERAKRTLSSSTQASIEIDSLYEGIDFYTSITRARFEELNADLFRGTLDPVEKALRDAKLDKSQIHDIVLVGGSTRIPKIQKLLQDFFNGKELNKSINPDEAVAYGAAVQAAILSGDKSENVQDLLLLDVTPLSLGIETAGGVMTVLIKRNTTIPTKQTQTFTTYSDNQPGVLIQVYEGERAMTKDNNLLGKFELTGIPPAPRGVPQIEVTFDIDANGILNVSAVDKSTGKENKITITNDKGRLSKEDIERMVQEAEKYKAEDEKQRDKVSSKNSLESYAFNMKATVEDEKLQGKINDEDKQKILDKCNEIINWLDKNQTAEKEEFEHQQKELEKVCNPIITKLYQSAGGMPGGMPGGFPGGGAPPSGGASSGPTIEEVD", "test": "Binding of tau to immobilized human Hsc70", "assay_type": "biochemical", "method": "as §1, §2"}, "human Hsc70 (HSPA8)": {"biological_target": "T3, human Hsc70 (HSPA8) (Homo sapiens, UniProt P11142)", "T3 construct": "made in house", "T3 sequence (P11142 whole entry)": "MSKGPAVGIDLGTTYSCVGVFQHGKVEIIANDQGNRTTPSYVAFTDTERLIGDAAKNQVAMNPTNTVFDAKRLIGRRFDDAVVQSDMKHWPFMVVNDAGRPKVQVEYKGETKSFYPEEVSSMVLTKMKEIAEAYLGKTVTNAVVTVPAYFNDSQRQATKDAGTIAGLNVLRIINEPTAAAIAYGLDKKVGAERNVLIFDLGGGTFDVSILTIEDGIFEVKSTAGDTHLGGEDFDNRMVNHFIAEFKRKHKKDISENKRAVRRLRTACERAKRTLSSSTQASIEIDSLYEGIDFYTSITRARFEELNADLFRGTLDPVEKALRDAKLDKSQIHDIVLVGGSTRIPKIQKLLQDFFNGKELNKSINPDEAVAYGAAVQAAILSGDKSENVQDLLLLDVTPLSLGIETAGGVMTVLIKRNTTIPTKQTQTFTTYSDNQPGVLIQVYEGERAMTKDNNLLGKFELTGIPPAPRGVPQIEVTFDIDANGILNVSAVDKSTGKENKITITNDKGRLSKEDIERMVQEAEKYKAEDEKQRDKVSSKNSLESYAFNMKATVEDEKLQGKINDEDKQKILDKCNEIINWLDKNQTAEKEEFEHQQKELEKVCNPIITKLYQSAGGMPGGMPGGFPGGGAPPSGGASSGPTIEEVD", "test": "ELISA competitive binding assay (biotinylated MKT-077 displacement)", "details": "competitive ELISA, biotin labeled MKT-077 1 μM", "method": "Binding of MKT-077 analogs to immobilized Hsp70 was evaluated using a competitive ELISA. In this established assay, a biotinylated version of MKT-077 is bound to immobilized human Hsc70 (HSPA8) and potential competitors are tested for their ability to block the interaction.\nA sample of Hsc70 (50 μL; 0.06 mg/mL) was immobilized in clear flat-bottom 96-well plate in MES buffer (50 mM 2-(N-morpholino)ethanesulfonic acid, pH 5.2) at 37° C. overnight. After discarding the excess protein solution, each well was washed three times with 150 μL TBS-T buffer (25 mM Tris, 140 mM NaCl, 2.7 mM KCl, 0.01% Tween-20, pH 7.4). Then, 1 μL of compound (1% DMSO) was diluted into 24 μL of binding buffer (100 mM Tris, 20 mM KCl, 6 mM MgCl2, 0.01% Triton-X100) and incubated at room temperature for 30 min. Biotin labeled MKT-077 (final concentration 1 μM; 25 μL) was subsequently added into each well and the mixture was incubated at room temperature for another 3 hrs. The wells were washed with 150 μL TBS-T buffer three times prior to blocking with 100 μL 3% bovine serum albumin (BSA) in TBS-T buffer for 5 min at room temperature. After the removal of the BSA solution, 50 μL of HRP-streptavidin (Pierce Biotechnology, 1:50000 TBS-T dilution) solution was added and the plates were incubated at room temperature for 1 hr. The HRP-streptavidin solution was removed and wells were washed three times with 150 μL TBS-T. […] substrate (Cell Signaling Technology 100 μL) was added into each well and incubated at room temperature until a visible blue color was shown in wells (about 20 min). 1 M HCl stop solution was then added into each well to yield a yellow solution and the absorbance at 450 nm was recorded on SpectraMax M5 (Molecular Devices)."}}, "data": [{"smiles": "CCn1c(=O)/c(=C2\\Sc3ccccc3N2C)s/c1=C\\c1ccccn1", "note": "[YM-08, (2Z,5E)-3-ethyl-5-(3-methylbenzo[d]thiazol-2(3H)-ylidene)-2-(pyridin-2-ylmethylene)thiazolidin-4-one]", "values": [{"measurement": "half-life", "setting": "[1]", "value": "< 3", "unit": "min"}, {"measurement": "enhancement of DnaK binding to denatured luciferase", "setting": "[2]", "value": "about 30%"}, {"measurement": "IC50", "setting": "MEF (C57BL/6)", "value": "4200 ± 240", "unit": "nM"}, {"measurement": "Kd", "setting": "Hsp72 (HSPA1)", "value": "~2000", "unit": "nM"}, {"measurement": "kidney distribution", "setting": "[3]; 0.16 and 1 hrs", "value": "reduced retention in the kidney"}, {"measurement": "brain penetration", "setting": "[3]; 0.16 hrs", "value": "abundant in the brain"}, {"measurement": "affinity of chaperone for tau substrate", "setting": "human Hsc70", "value": "enhanced the affinity"}, {"measurement": "IC50", "setting": "human Hsc70 (HSPA8)", "value": "610 ± 50", "unit": "nM"}]}]}
